Data from US20210137854A1, “TAAR Receptor Agonists for the Treatment of Alopecia” (APPLIED BIOLOGY, INC., priority 2018, published 2021).

Assays:
Type in all cases: in vivo, human
[1] = Cardiac or hemodynamic changes during topical α1-AR agonist studies; details: subjects sampled during both studies
Source text: It is recognized that […] of the α1 adrenergic receptor (α1-AR), a G-protein coupled receptor, expressed on the arrector pili muscle.

scalp hair follicles [2] = assay: Epilation force threshold for plucking scalp hair (trichotillometer)
Description: To evaluate the effect of a topically applied TAAR agonist combination on the force required to pluck hairs from the scalp, a hand-held spring dynamometer, or “trichotillometer” was used. The trichotillometer records the maximum force threshold, in grams, required to pluck a single hair from the scalp; the performance and statistical variance of the instrument have been reported previously. […] The frontal area of scalp was divided into two 8×10 cm^2 areas. On the right side 0.5 mL of a placebo vehicle was applied. On the left side, 0.5 mL a 12% tyramine solution was applied. After 45 minutes, ten hairs were plucked from each of the target areas with the trichotillometer.

scalp hair follicles [3] = assay: Hair shedding during brushing after topical solution versus placebo
Source text: Participants included in the study were female subjects between ages of 18 and 60 who frequently use traumatic hair care practices, such as tight braids, head scarves, ponytails, extensions, hair rollers, hair weaves and heated styling appliances such as blow dryers, flat irons, heat setters and curling irons. Excluded subjects were those who experienced uncontrolled hypertension, those who were pregnant or breastfeeding, those who were diagnosed with pattern hair loss, or those who experienced other hair loss in conjunction with female pattern hair loss. Overall, fifteen female subjects, aged 24 to 40 years, participated in the study.
On day 1, subjects were instructed to wash their hair. On day 2, subjects were instructed to apply 1 mL of placebo solution containing vehicle and brush targeted area after 30 minutes. Brushing was conducted to frontal hair with regular brush in size of 8×10 cm^2. On day 3, subjects were instructed again to wash their hair. On day 4, subjects were instructed to apply 1 mL of 10% m-octopamine hydrochloride solution on targeted area and brush after 30 minutes.
The study was conducted over 4 days. On day 1, subjects were instructed to wash their hair. […]
Hair Shedding: To measure hair loss during cosmetic procedures, a 4-day protocol was designed. […] After each clinical procedure, the investigator counted the hairs collected on each brush. […]

With `CNC[C@H](O)c1cccc(O)c1` [phenylephrine] the “cardiac or hemodynamic changes” value [1] was “no cardiac or hemodynamic changes were observed”, the “increase in epilatory force threshold for plucking hair follicles” value (scalp hair follicles [2]; following topical application, Examples 5 and 6, FIGS. 4-5) was 172% and the “increase in average threshold of force required to pluck hair” value (scalp hair follicles [2]; pilot study of 15 female subjects) was 172%. For the same molecule, the “subjects with reduced shedding compared to days using placebo solution” value (scalp hair follicles [3]; Examples 7 and 9, blinded study, female subjects ages 18-40) was 80% and the “reduction in hairs lost (shedding) during brushing” value (scalp hair follicles [3]; earlier studies of the inventors, phenylephrine 15 female subjects, AB-102 cohort of 40 women) was 40%.
